Assay results taken from the METLIN SMRT retention time set (Domingo-Almenara et al. 2019).

Experiment: gradient 5% acetonitrile 3 min, to 50% in 2 min, to 85% in 15 min, held 3 min, 100 µL/min
Conditions: column: Zorbax Extend-C18 2.1 x 50 mm; eluents: water / acetonitrile, 0.1% formic acid
Summary of the method: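 Pure standards were run in mixtures of ~100 molecules by HPLC coupled to a quadrupole time-of-flight mass spectrometer. The column was a Zorbax Extend-C18 (2.1 × 50 mm, 1.8 μm) at 100 μL/min, with water and acetonitrile each containing 0.1% formic acid, in positive and negative ionization mode. Dead and dwell volumes were 40 μL and 900 μL. Retention time was taken from computationally picked adduct peaks, each manually inspected, with data collected over 3 months.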

| RP-LC retention time [s] | SMILES |
| --- | --- |
| 548 | CN1CCCC1c1nc(C2CN(C(=O)c3cccn3C)C2)no1 (configuration not stated) |
| 1140 | Cc1nnc2ccc(-c3noc(CCc4ccccc4)n3)cn12 |
| 741 | CC(C)NC(=O)C1CCCN(c2nc3ncn(CC(=O)Nc4ccccc4Cl)c(=O)c3s2)C1 (configuration not stated) |
| 607 | CC(C)C(=O)Nc1ccc2c(c1)nc(CN1CCOCC1)n2C(C)C |
| 1020 | COC(=O)c1cc(S(=O)(=O)N2CCCC2C(=O)Nc2ccc(C(C)C)cc2)cn1C (configuration not stated) |
| 671 | COc1ccc2nccc(/C=C/c3ccnc4ccc(OC)cc34)c2c1 |
| 1090 | CC(C)CCNC(=O)C1CCN(c2nccn3nc(-c4cccs4)cc23)CC1 |
| 1060 | Cc1ccccc1-c1nc(-c2ccc3nnn(C)c3c2)no1 |
| 882 | C=CCN1C(=O)COc2ccc(-c3csc(NC(=O)c4ccco4)n3)cc21 |
| 875 | CCc1ccc(C2=C(C)C(N3CCCN(C(=O)C4CCC4)CC3)=NS2(=O)=O)cc1 |
| 933 | Cc1[nH]c(C(=O)Nc2ccccc2F)c(C)c1S(=O)(=O)N1CCCCC1 |
| 754 | COc1ccc(C(=O)Nc2nc(CC(=O)Nc3ccc4c(c3)OCCO4)cs2)cc1 |
| 611 | CN(C)c1ccc(CNC(=O)CN2CCN(C(=O)Nc3ccc(Br)cc3)CC2=O)cc1 |
| 679 | CC(CCc1ccccc1)NC(=O)CCC(=O)N1CCc2c(c(C(=O)N3CCOCC3)nn2C)C1 (configuration not stated) |
| 1020 | CSc1ccc(-c2nc3cnccn3c2Nc2cccc(C(F)(F)F)c2)cc1 |
| 762 | CCOC(=O)Cn1cc(S(=O)(=O)N2CCCCC2)ccc1=O |
| 623 | COc1ccc(S(=O)(=O)N2CCCC(C(=O)NCc3cccnc3)C2)cc1C (configuration not stated) |
| 1020 | CCn1cc(C(=O)NCCC2=CCCCC2)c2nn(-c3ccccc3)c(=O)c-2c1 |
| 747 | CCCNS(=O)(=O)c1cc(-c2c(CC)noc2NC(C)=O)ccc1C |
| 791 | CC(NC(=O)CCCN1C(=O)CCn2nc(-c3cn(C)c4ccccc34)cc21)c1ccccc1 (configuration not stated) |
| 741 | COCCn1c(CCCC(=O)NCc2ccc(C(C)C)cc2)nc2cccnc21 |
| 709 | CC(O)(CNC(=O)NC1CCCCC1)c1ccc2c(c1)OCO2 (configuration not stated) |

| RP-LC retention time [s] | SMILES |
| --- | --- |
| 603 | COc1ccc(NC(=O)CCNc2cnc3cnccn23)cc1Cl |
| 797 | Cc1ccc(F)cc1S(=O)(=O)N1CCn2c(nn(CC3CC3)c2=O)C1 |
| 917 | Cc1nc(-c2ccccc2)cc2nn(CC(=O)N(C)c3ccccc3)c(=O)n12 |
| 729 | COCCCNC(=O)CN1C(=O)C2CCCCN2c2ccc(C(=O)N3CCCCC3)cc21 (configuration not stated) |
| 674 | O=C(NCCCN1CCCC1)C1CCCN(c2ncc(-c3ccc(F)cc3)cn2)C1 (configuration not stated) |
| 959 | CCOC(=O)c1ccc2nc(NC(=O)c3cccc([N+](=O)[O-])c3)sc2c1 |
| 733 | Cc1ccc(C(=O)NC2CCN(c3cc(-c4cccs4)[nH]n3)C2)cc1 (configuration not stated) |
| 1070 | COc1ccc(CCNS(=O)(=O)c2cccc(-c3nc(-c4ccccc4)no3)c2)cc1OC |
| 886 | Cc1ccsc1C(=O)Nc1ccc2c(c1)Sc1ncccc1C(=O)N2C(C)C |
| 841 | CCCNC(=O)N(C1CCOCC1)C1CCN(S(=O)(=O)c2ccc(C)cc2C)CC1 |
| 1100 | COc1cccc(NC(=O)Cn2nc3cc(C)nc(Nc4ccc(C)c(C)c4)n3c2=O)c1 |
| 1130 | O=C(Nc1ccc([N+](=O)[O-])cc1Cl)c1cc(Cl)ccc1O |
| 755 | CCCCN1C(=O)C(CC(=O)N2CCCC2)Sc2ncccc21 (configuration not stated) |
| 806 | Cc1cccc(NC(=O)N2CCC3(CC2)N=C(c2ccccc2)C(=O)N3)c1 |
| 840 | CCNC(=O)c1n[nH]c2c1CC(C(C)(C)C)CC2 (configuration not stated) |
| 928 | CCS(=O)(=O)c1nc2ccc(NS(=O)(=O)c3cccc(Cl)c3)cc2s1 |
| 619 | Cc1cnc(Nc2ccc(OCCN3CCCC3)cc2)nc1Nc1cccc(S(=O)(=O)NC(C)(C)C)c1 |
| 726 | O=C(NCc1cccc(Cl)c1)C1CCc2nc(N3CCOCC3)ncc2C1 (configuration not stated) |
| 1180 | Cc1ccc(-c2coc(-c3ccc(NC(=O)NCc4ccc(F)cc4)cc3)n2)c(C)c1 |
| 848 | COc1ccc(-c2ccnc3nc(-c4ccccc4)nn23)cc1OC |
| 1090 | Cc1ccc(Oc2nccnc2SCC(=O)NCCC2=CCCCC2)cc1 |
| 1090 | O=c1c2sccc2n(Cc2nc(-c3cccc(C(F)(F)F)c3)no2)c(=O)n1-c1ccccc1F |

| RP-LC retention time [s] | SMILES |
| --- | --- |
| 750 | Cn1c(=O)c2nc(S(=O)(=O)CCC(=O)Nc3cccc(Br)c3)n(C)c2n(C)c1=O |
| 828 | CCn1c(=O)c(N2CCCC(C(=O)NCCc3ccco3)C2)nc2cccnc21 (configuration not stated) |
| 1070 | Cc1ccc(NS(=O)(=O)c2cc3n(c2)CCN(C)C3=O)c(F)c1 |
| 754 | CC1CN(C(=O)NCC2CCCO2)c2ccccc2O1 (configuration not stated) |
| 1160 | Cc1ccc(C)c(N2CCN(Cc3nc(-c4ccc(N5CCCCC5)nc4)no3)CC2)c1 |
| 712 | COc1ccc(Cc2nnc(C3CCN(C(=O)c4cccc(N(C)C)c4)CC3)s2)cc1 |
| 1020 | Cc1nnc(-c2ccc3ccn(CC(=O)N4CCN(c5cc(Cl)ccc5C)CC4)c3c2)o1 |
| 893 | COc1ccc(OC)c(NS(=O)(=O)c2ccc(-c3nnc(C4CCC4)o3)o2)c1 |
| 670 | O=C(Nc1ccccc1Br)N1CCC(n2cnc3cccnc32)CC1 |
| 891 | Oc1ccc(Cc2ccccc2Cl)c(O)c1 |
| 614 | O=C(Cc1ccccc1)N1CCN(c2nc(CN3CCOCC3)cs2)CC1 |
| 675 | Cc1cccc(CNC(=O)c2cn3cccc(C)c3n2)c1 |
| 1150 | Cc1nc(-c2ccc(-c3noc(CN4C(=O)COc5ccc(Cl)cc54)n3)cc2)cs1 |
| 972 | CC1(C(=O)NCc2ccc(F)cc2)CCCN(C(=O)Nc2ccc(F)c(Cl)c2)C1 (configuration not stated) |
| 1100 | Cc1ccc(-c2csc(NC(=O)c3ccc4c(c3)OCO4)n2)cc1C |
| 801 | Cn1cc(S(=O)(=O)N2CCOCC2)cc1C(=O)Nc1ccccc1 |
| 672 | CCn1c(=O)c(NCc2ccc(C)c(C)c2)nc2ccncc21 |
| 850 | CC(C)Cn1ccc2c(cc(C(=O)NCc3cc(F)cc(F)c3)n2C)c1=O |
| 742 | O=C1NCCCn2cc(S(=O)(=O)N3CCN(c4ccccc4F)CC3)cc21 |
| 1210 | COc1nn(C)cc1C(=O)Nc1nc(-c2cc(Cl)sc2Cl)cs1 |

| SMILES | RP-LC retention time [s] |
| --- | --- |
| O=[N+]([O-])c1ccc2nc(N3CCNCC3)ccc2c1 | 641 |
| Cc1nn(CC(=O)N2CCC3(CC2)OCCO3)c(=O)c2nc(-c3ccccc3)sc12 | 970 |
| COc1cc(OC)cc(C2(C#N)CCN(C)CC2)c1 | 665 |
